Assay results taken from patent EP4122499A1, “FIBROBLAST ACTIVATION PROTEIN INHIBITORS AND USE THEREOF” (3B Pharmaceuticals GmbH, priority 2021, dated 2023).

How the values were obtained:
[1] = Plasma stability assay, mouse plasma; format: in vitro ADME; settings: 37°C
Procedure: (§1) In order to determine the stability of selected compounds of the invention in human and mouse plasma, a plasma stability assay was carried out. Such plasma stability assay measures degradation of compounds of the present invention in blood plasma. This is an important characteristic of a compound as compounds, with the exception of pro-drugs, which rapidly degrade in plasma, generally show poor in vivo efficacy. […] The stability is sufficient for the diagnostic, therapeutic and theragnostic use of these compounds according to the present invention.
(§2) The plasma stability samples were prepared by spiking 50 µl plasma aliquots (all sodium citrate 3.8%) with 1 µl of a 0.5 mM compound stock solution in DMSO. After vortexing, the samples were incubated in a Thermomixer at 37°C for 4 or 6 hours. After incubation the samples were stored on ice until further treatment. All samples were prepared in duplicates.
A suitable internal standard was added to each sample (1 µl of a 0.5 mM stock solution in DMSO). Protein precipitation was performed using two different methods depending on the compound conditions as indicated in Table 8. • A) 250 µl of acetonitrile containing 1% trifluoroacetic acid was added. […] After incubation at room temperature for 30 min the precipitate was separated by centrifugation. To 100 µl of the supernatant 10 µl of 1% formic acid was added followed by further incubation at 60°C for 10 min to complete the formation of the zinc chelate, if the compound contains a free DOTA moiety.
The determination of the analyte in the clean sample solutions was performed on an Agilent 1290 UHPLC system coupled to an Agilent 6530 Q-TOF mass spectrometer. The chromatographic separation was carried out on a Phenomenex BioZen XB-C18 HPLC column (50 x 2 mm, 1.7 µm particle size) with gradient elution using a mixture of 0.1% formic acid in water as eluent A and acetonitrile as eluent B (2% B to 41% in 7 min, 800 µl/min, 40°C). Mass spectrometric detection was performed in positive ion ESI mode by scanning the mass range from m/z 50 to 3000 with a sampling rate of 2 / sec.
From the mass spectrometric raw data the ion currents for the double or triple charged monoisotopic signal was extracted for both, the compound and the internal standard.
(§3) Quantitation was performed by external matrix calibration with internal standard using the integrated analyte signals.
The result is stated as "% intact compound remaining after 4 h or 6 h" and means that from the amount of material at the start of the experiment the stated percentage is detected as unchanged material at the end of the experiment by LC-MS quantification. Since all compounds are more than 50% intact after at least 4 h they are considered as stable enough for diagnostic and therapeutic applications. Table 8: Results of the plasma stability assay

[2] = target: T1, HEK-FAP cells (Homo sapiens, UniProt Q12884); test: LigandTracer assay with 111In-labeled compounds; format: binding; settings: 111In-labeled compound; for kon: association rate, read-out: ka
T1 construct: expressed in transfected cells; host or cells: HEK293
T1 sequence (Q12884 1-760): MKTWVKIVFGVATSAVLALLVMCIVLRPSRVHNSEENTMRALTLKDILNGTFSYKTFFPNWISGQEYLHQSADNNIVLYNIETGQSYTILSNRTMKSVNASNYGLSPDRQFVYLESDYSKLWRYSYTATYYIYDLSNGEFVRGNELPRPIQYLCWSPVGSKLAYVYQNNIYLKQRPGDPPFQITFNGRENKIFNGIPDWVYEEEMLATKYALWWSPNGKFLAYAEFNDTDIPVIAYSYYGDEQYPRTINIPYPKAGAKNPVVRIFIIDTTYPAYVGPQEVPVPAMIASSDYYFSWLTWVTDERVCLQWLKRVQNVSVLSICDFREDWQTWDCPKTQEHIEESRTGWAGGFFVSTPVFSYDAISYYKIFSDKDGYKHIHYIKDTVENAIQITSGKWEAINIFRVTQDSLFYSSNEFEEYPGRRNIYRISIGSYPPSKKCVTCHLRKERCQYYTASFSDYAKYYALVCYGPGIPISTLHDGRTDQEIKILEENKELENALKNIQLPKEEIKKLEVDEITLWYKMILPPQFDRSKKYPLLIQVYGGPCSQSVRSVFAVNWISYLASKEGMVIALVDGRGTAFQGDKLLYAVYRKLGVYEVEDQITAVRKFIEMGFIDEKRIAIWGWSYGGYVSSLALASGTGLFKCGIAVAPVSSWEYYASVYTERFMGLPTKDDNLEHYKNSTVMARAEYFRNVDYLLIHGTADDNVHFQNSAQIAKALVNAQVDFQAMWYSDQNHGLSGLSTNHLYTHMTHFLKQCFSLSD
Procedure: HEK293 cells (human embryonic kidney cells) were engineered to express the human FAP. […] Cell concentrations were adjusted to 3 x 10^5 mL^-1, and 3.000 µL of the suspension was dispensed into a poly-lysine-coated, clear cell dish (10cm). Approximately 24 hours after re-seeding, the medium was replaced by assay medium (Ham's medium with 20 mM HEPES) containing 1 % FCS. The dish was placed in the LigandTracer® device and a baseline measurement was obtained using the LigandTracer® Control software (version 2.4). […] To determine the dissociation rate (kd) the cells were washed and subsequently incubated with fresh assay medium for several hours. […] Table 14 Results of the LigandTracer® assay

[3] = Plasma stability assay, human plasma; format: in vitro ADME; settings: 37°C, 6 h
Procedure: as §1, §2
A suitable internal standard was added to each sample (1 µl of a 0.5 mM stock solution in DMSO). […]
as §3
The result is stated as "% intact compound remaining after 4 h or 6 h" and means that from the amount of material at the start of the experiment the stated percentage is detected as unchanged material at the end of the experiment by LC-MS quantification. […]

| SMILES | % intact compound remaining after incubation ([1]; 6 h) | HL [2] [min] | pKD [2] | kon [2] [M⁻¹ s⁻¹] | % intact compound remaining after incubation ([1]; 4 h) | % intact compound remaining after incubation [3] |
| --- | --- | --- | --- | --- | --- | --- |
| O=C(O)CN1CCN(CC(=O)O)CCN(CC(=O)N2CCN(CCNC(=O)c3cccc(-c4ccc5c(C(=O)NCC(=O)N6CCC[C@H]6C(=O)c6nc7ccccc7o6)ccnc5c4)c3)CC2)CCN(CC(=O)O)CC1 [Compound 3BP-4694] | 90% (6 h) | 3946 ± 1189 | 10.3 ± 0.1 | 57000 | – | – |
| CS(=O)(=O)c1cccc(-c2ccc3nccc(C(=O)NCC(=O)N4CC(F)(F)C[C@H]4C#N)c3c2)c1 [Compound 3BP-3126] | – | – | – | – | 78% (4 h) | – |
| O=C(NCC(=O)N1CCC[C@H]1C(=O)c1nc2ccccc2o1)c1ccnc2c1=CCCC=2 [Compound 3BP-3205] | – | – | – | – | > 95% (4 h) | – |
| O=C(O)CN1CCN(CC(=O)O)CCN(CC(=O)N2CCN(CCNC(=O)c3cccc(-c4ccc5nccc(C(=O)NCC(=O)N6CCC[C@H]6C(=O)c6nc7ccccc7o6)c5c4)c3)CC2)CCN(CC(=O)O)CC1 [Compound 3BP-4664] | – | 1030 ± 1439 | 9.3 ± 0.7 | 160000 | – | – |
| CS(=O)(=O)c1cccc(-c2ccc3c(C(=O)NCC(=O)N4CC(F)(F)C[C@H]4C#N)ccnc3c2)c1 [Compound 3BP-3127] | – | – | – | – | > 95% (4 h) | – |
| O=C(NCC(=O)N1CCC[C@H]1C(=O)c1ncco1)c1ccnc2ccccc12 [Compound 3BP-3208] | – | – | – | – | 92% (4 h) | – |
| O=C(O)CN1CCN(CC(=O)O)CCN(CC(=O)N2CCN(CCCOc3ccc4nccc(C(=O)NCC(=O)N5C[C@@H](F)C[C@H]5C(=O)c5nc6ccccc6o5)c4c3)CC2)CCN(CC(=O)O)CC1 [Compound 3BP-4809] | – | 18 ± 1 | 8.2 ± 0.1 | – | – | – |
| CS(=O)(=O)c1ccc(-c2ccc3c(C(=O)NCC(=O)N4CCC[C@H]4C#N)ccnc3c2)cc1 [Compound 3BP-3128] | – | – | – | – | > 95% (4 h) | – |
| O=C(O)CN1CCN(CC(=O)O)CCN(CC(=O)N2CCN(CCNC(=O)c3ccc(-c4ccc5nccc(C(=O)NCC(=O)N6CCC[C@H]6C(=O)c6nc7ccccc7o6)c5c4)cc3)CC2)CCN(CC(=O)O)CC1 [Compound 3BP-4663] | 92% (6 h) | 1477 ± 2013 | 9.8 ± 0.7 | 150000 | – | 89% (6 h) |
| O=C(O)CN1CCN(CC(=O)O)CCN(CC(=O)NCCCS(=O)(=O)c2ccc(-c3ccc4nccc(C(=O)NCC(=O)N5CCC[C@H]5C(=O)c5nc6ccccc6o5)c4c3)cc2)CCN(CC(=O)O)CC1 [Compound 3BP-3581, (S)-2,2',2"-(10-(2-(3-(4-(4-(2-(2-(benzo[d]oxazole-2-carbonyl)pyrrolidin-1-yl)-2-oxoethylcarbamoyl)quinolin-6-yl)phenylsulfonyl)propylamino)-2-oxoethyl)-1,4,7,10-tetraazacyclododecane-1,4,7-triyl)triacetic acid] | – | 345 ± 218 | – | – | – | – |
| O=C(O)CN1CCN(CC(=O)O)CCN(CC(=O)N2CCN(CCCOc3ccc4nccc(C(=O)NCC(=O)N5CCC[C@H]5C(=O)c5nc6ccccc6o5)c4c3)CC2)CCN(CC(=O)O)CC1 [Compound 3BP-4808] | – | 20 ± 5 | 8.2 ± 0.0 | 94000 | – | – |
| O=C(O)CN1CCN(CC(=O)O)CCN(CC(=O)N2CCN(CCNC(=O)c3ccc(-c4ccc5c(C(=O)NCC(=O)N6CCC[C@H]6C(=O)c6nc7ccccc7o6)ccnc5c4)cc3)CC2)CCN(CC(=O)O)CC1 [Compound 3BP-4665] | – | 22 ± 16 | 8.8 ± 0.2 | 220000 | – | – |
